System: diamondback moth, Plutella xylostella
Assay: Bioassay on treated cabbage plants (track sprayer, 400 L/Ha) infested with second instar diamondback moth; synergy judged by Colby's equation
Assay type: in vivo
Text: The method described in Colby S. R., “Calculating Synergistic and Antagonistic Responses of Herbicide Combinations,” Weeds, 1967, 15, 20-22 was used to determine an existence of synergic effect between the inhibitor of chitin biosynthesis, type 1 compound and the pesticide (I), (II), or any agriculturally acceptable salt thereof in the formulated pesticidal composition. In this method, the percent insect control of the formulated pesticidal composition as observed in the study was compared to the “expected” percent control (E) as calculated by equation (1) (hereinafter “Colby's equation”) below:
[formula] where • X is the percentage of control with the first pesticide at a given rate (p), • Y is the percentage of control with the second pesticide at a given rate (q), and • E is the expected control by the first and second pesticide at a rate of p+q.
Bioassays were performed for different active compounds. Cabbage plants with about two to three new-growth-true leaf stage were treated with different active compounds using a track sprayer application at 400 L/Ha spray volume. Three second instar diamondback moth, Plutella xylostella, were infested onto each leaf disc. The percent control of the pesticidal composition against diamondback moth, Plutella xylostella, was determined as the “Observed” action, and compared to those obtained by using about 0.000625 weight % of compound I, and using about 0.000625 weight % of buprofezin alone. The “Colby's Expected Action” was calculated using Colby's equation as discussed previously.
Bioassays were performed wherein different active compounds were tested against diamondback moth, Plutella xylostella, using the procedure described in example 5A.
Bioassays may be performed for different active compounds against diamondback moth, Plutella xylostella, using the procedure described in example 5A. The percent control may be determined after three days after the treatment.

[1] = Example 5A, active used alone, dose rate 0.000625 weight %, diamondback moth on cabbage

Row | Structure (SMILES) | % Control Three Days After Treatment [1] | % Control Three Days After Treatment (Example 5A, active used alone, dose rate 0.000625 weight %, diamondback moth on cabbage, listed as buprofezin) | % Control Three Days After Treatment (Example 5B, buprofezin alone, dose rate 0.0025 weight %) [%] | % Control Three Days After Treatment (Example 5B, buprofezin alone, dose rate 0.0025 weight %, listed as buprofezin) | % Control Three Days After Treatment (Example 5C, buprofezin alone, dose rate 0.000625 weight %) [%] | % Control Three Days After Treatment (Example 5C, buprofezin alone, dose rate 0.000625 weight %, listed as buprofezin) | % Control Three Days After Treatment (Example 5B, compound I alone, dose rate 0.000625 weight %) [%] | % Control Three Days After Treatment (Example 5B, compound I alone, dose rate 0.000625 weight %, listed as compound I) | % Control Three Days After Treatment (Example 5C, compound I alone, dose rate 0.0025 weight %) [%] | % Control Three Days After Treatment (Example 5C, compound I alone, dose rate 0.0025 weight %, listed as compound I)
1 | CC(C)N1C(=O)N(c2ccccc2)CS/C1=N\C(C)(C)C [Buprofezin, (E,Z)-2-tert-butylimino-3-isopropyl-5-phenyl-1,3,5-thiadiazinan-4-one] | 0% | no control | 0 | no control | 0 | no control |  |  |  | 
2 | CCN(C(=O)CCSCCC(F)(F)F)c1cn(-c2cccnc2)nc1Cl [Compound I, N-(3-chloro-1-(pyridin-3-yl)-1H-pyrazol-4-yl)-N-ethyl-3-((3,3,3-trifluoropropyl)thio)propanamide] | no control |  |  |  |  |  | 0 | no control | 0 | no control

Reference: patent US9474276B2, “Synergistic pesticidal compositions and related methods” (Dow AgroSciences LLC, priority 2013, dated 2016)
